Experimental data as given in patent US10774064B2 (Cadent Therapeutics, Inc., priority 2016, dated 2020).

Molecular target: T1, small-conductance Ca2+-activated K+ channels (SK channels, subtype 2) (Homo sapiens, UniProt Q9H2S1)
T1 construct: expressed in transfected cells; host or cells: HEK293
Experiment: whole-cell patch-clamp of ionic current through SK2 channels in HEK293 cells (SC100)
Format: cell-based
Conditions: concentration that increases the basal current by 100%; HEK293 cells expressing SK2 channels
Experimental: The biological activity was determined as follows. The ionic current through small-conductance Ca^2+-activated K^+ channels (SK channels, subtype 2) was measured using the whole-cell configuration of the patch-clamp technique in a patch-clamp set-up using HEK293 tissue culture cells expressing SK2 channels as described in Hougaard et al., British Journal of Pharmacology 151, 655-665, May 8, 2007, the entire teachings of which are incorporated herein by reference. In one aspect, a compound is defined to be an SK PAM if the compound increases current in this assay, for example, if the SC100 value of the compound is less than or equal to 10 μM as determined by this assay. The SC100 value is defined to be the concentration of compound that increases the basal current by 100%.

| SC100 | SMILES |
| --- | --- |
| + (+ means >1 uM) | Cc1cc(C)n(-c2cc(C3CC3)nc(NC3CCC(F)(F)C3)n2)n1 (centres unmarked) [Compound 222, 4-cyclopropyl-N-(3,3-difluorocyclopentyl)-6-(3,5-dimethyl-1H-pyrazol-1-yl)pyrimidin-2-amine] |
| ++ (++ means 200 nM-1000 nM) | Cc1cc(NC2CCC(F)(F)CC2)nc(-n2nc(Br)cc2C)n1 [Compound 220, 2-(3-bromo-5-methyl-1H-pyrazol-1-yl)-N-(4,4-difluorocyclohexyl)-6-methylpyrimidin-4-amine] |
| + (+ means >1 uM) | Cc1cc(C)n(-c2nc(CF)cc(NC3CCCC(F)(F)C3)n2)n1 (centres unmarked) [Compound 358, N-(3,3-difluorocyclohexyl)-2-(3,5-dimethyl-1H-pyrazol-1-yl)-6-(fluoromethyl)pyrimidin-4-amine] |
| + (+ means >1 uM) | Cc1cc(C)n(-c2nc(NC3CCC(F)(F)CC3)cc(C(F)F)n2)n1 [Compound 142, N-(4,4-difluorocyclohexyl)-6-(difluoromethyl)-2-(3,5-dimethyl-1H-pyrazol-1-yl)pyrimidin-4-amine] |
| ++ (++ means 200 nM-1000 nM) | Cc1cc(C)n(-c2nc(NCc3cn(C)nn3)cc(NC3CCC(F)(F)CC3)n2)n1 [Compound 233, N4-(4,4-difluorocyclohexyl)-2-(3,5-dimethyl-1H-pyrazol-1-yl)-N6-((1-methyl-1H-1,2,3-triazol-4-yl)methyl)pyrimidine-4,6-diamine] |

More lines, now with the values behind:

| SMILES | SC100 |
| --- | --- |
| Cc1cc(C)n(-c2nc3c(c(NC4CCC(F)(F)CC4)n2)CCN(CC#N)C3)n1 [Compound 122, 2-(4-((4,4-difluorocyclohexyl)amino)-2-(3,5-dimethyl-1H-pyrazol-1-yl)-5,8-dihydropyrido [3,4-d]pyrimidin-7(6H)-yl)acetonitrile] | + (+ means >1 uM) |
| Cc1ccn(-c2nc(NC3CCC(F)(F)CC3)cc(NC3CC(F)(F)C3)n2)n1 [Compound 147, N4-(3,3-difluorocyclobutyl)-N6-(4,4-difluorocyclohexyl)-2-(3-methyl-1H-pyrazol-1-yl)pyrimidine-4,6-diamine] | ++ (++ means 200 nM-1000 nM) |

Same assay, conditions: whole-cell patch-clamp, HEK293 cells expressing SK2 channels; concentration that increases the basal current by 100%

| SC100 (μM) | SMILES |
| --- | --- |
| + (+ means >1 uM) | Cc1ccn(-c2cc(N3CCC4(CCOCC4)C3)nc(NC3CCC(F)(F)CC3)n2)n1 [NSSy6581] |
| ++ (++ means 200 nM-1000 nM) | COC(=O)N1CC(Oc2cc(NC3CCC(F)CC3)nc(-c3nc(C)cs3)n2)C1 (centres unmarked) [NSSy5710] |
| + (+ means >1 uM) | Cc1csc(-c2nc(CC3CCC(F)(F)CC3)cc(N3CCOCC3)n2)n1 [NSSy6263, 4-(6-((4,4-difluorocyclohexyl)methyl)-2-(4-methylthiazol-2-yl)pyrimidin-4-yl)morpholine] |
| + (+ means >1 uM) | Cc1csc(-c2nc(NC3CCC(F)(F)CC3)cc(OC3CCOCC3)n2)n1 [IN11079-007-P1] |
| ++ (++ means 200 nM-1000 nM) | Cc1ccn(-c2cc(CO)cc(NC3CCC(F)(F)CC3)n2)n1 [NSSy5827] |
| ++ (++ means 200 nM-1000 nM) | Cc1ccn(-c2nc(NC3CCC(F)CC3)cc(OC3CN(C(=O)C(C)C)C3)n2)n1 (centres unmarked) [NSSy5765] |
| + (+ means >1 uM) | Cc1nsc(-c2nc(NC3CCC(F)(F)CC3)cc(N3CC4(COC4)C3)n2)n1 [NSSy6145] |
| + (+ means >1 uM) | Cc1ccn(-c2cc(N3CCOCC3)cc(C(=O)c3ccc(F)cc3)n2)n1 [NSSy6470, (4-fluorophenyl) (6-(3-methyl-1H-pyrazol-1-yl)-4-morpholinopyridin-2-yl) methanone] |
| ++ (++ means 200 nM-1000 nM) | Cc1cn(-c2cc(OC3COC3)cc(NC3CCC(F)(F)CC3)n2)nc1CF [NSSy5615, N-(4,4-difluorocyclohexyl)-6-(3-(fluoromethyl)-4-methyl-1H-pyrazol-1-yl)-4-(oxetan-3-yloxy)pyridin-2-amine] |
| ++ (++ means 200 nM-1000 nM) | Cc1csc(-c2cc(N)cc(NC3CCC(F)(F)CC3)n2)n1 [IN11063-087-P1, N2-(4,4-difluorocyclohexyl)-6-(4-methylthiazol-2-yl)pyridine-2,4-diamine] |
